The numbers were not newly measured in US10610500B2, “Chemosensory receptor ligand-based therapies” (Anji Pharma (US) LLC, priority 2011, dated 2020), which cites them from elsewhere.

The target of the data set is T1, sweet receptor (Homo sapiens, UniProt Q7RTX0+Q8TE23).
T1 sequence (Q8TE23 20-839): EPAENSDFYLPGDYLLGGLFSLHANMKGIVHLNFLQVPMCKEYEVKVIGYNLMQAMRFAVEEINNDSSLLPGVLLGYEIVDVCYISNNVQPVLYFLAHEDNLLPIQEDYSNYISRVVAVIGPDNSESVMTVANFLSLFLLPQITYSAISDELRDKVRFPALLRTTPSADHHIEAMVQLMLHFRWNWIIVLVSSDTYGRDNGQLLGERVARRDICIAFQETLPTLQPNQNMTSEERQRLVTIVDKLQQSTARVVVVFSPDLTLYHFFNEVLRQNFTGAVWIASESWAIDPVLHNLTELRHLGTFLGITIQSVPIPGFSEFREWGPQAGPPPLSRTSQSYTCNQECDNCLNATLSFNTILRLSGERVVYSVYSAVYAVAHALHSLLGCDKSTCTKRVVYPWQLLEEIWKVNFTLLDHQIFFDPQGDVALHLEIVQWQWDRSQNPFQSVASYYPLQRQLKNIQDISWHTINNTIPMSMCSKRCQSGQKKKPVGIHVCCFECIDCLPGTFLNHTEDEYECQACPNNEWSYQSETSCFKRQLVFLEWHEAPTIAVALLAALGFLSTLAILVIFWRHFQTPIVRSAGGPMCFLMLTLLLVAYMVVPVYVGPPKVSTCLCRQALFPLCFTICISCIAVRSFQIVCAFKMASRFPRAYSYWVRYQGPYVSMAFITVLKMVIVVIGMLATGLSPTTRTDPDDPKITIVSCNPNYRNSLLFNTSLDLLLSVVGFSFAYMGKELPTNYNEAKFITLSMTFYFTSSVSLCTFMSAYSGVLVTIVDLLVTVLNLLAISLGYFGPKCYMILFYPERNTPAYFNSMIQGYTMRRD
T1 sequence (Q7RTX0 21-852): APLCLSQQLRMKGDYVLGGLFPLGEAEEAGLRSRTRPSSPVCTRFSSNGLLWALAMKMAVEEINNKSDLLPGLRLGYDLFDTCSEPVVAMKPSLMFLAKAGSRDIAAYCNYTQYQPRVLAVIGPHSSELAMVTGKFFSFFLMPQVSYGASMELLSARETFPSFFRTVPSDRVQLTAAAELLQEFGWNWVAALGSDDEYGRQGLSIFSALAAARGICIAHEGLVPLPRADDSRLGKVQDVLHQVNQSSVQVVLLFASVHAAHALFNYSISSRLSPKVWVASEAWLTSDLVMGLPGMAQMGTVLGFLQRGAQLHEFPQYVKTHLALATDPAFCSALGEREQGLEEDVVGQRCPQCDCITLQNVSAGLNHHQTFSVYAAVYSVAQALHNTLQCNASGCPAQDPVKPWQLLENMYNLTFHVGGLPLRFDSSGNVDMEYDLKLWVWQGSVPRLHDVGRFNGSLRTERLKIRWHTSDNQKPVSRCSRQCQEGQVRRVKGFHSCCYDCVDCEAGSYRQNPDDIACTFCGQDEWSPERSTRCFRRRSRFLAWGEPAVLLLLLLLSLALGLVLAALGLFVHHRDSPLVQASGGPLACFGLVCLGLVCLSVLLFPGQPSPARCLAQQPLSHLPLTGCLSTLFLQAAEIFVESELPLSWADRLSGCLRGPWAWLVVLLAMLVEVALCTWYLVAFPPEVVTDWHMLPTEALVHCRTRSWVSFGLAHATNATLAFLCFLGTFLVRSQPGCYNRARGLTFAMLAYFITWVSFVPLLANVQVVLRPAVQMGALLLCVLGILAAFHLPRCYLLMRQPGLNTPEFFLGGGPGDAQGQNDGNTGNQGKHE
The settings on record: relative sweetness on a weight comparison basis to sucrose (=1.0); ranges: relative sweetness varied with the concentration of sucrose.
Consider `C/C(=C\CO)CCC1=C(C=O)CC(OC2OCC(O)C(O)C2O)C2C(C)(CO)CCCC12C` (stereo not drawn) [Gaudichaudioside A], for which the Sweetness/potency is on record as 55.
For the molecule “Brazzein: sweet protein of Pentadiplandra brazzeana Baillon (QDKCKKVYENYPVSKCQLANQCNYDCKLDKHARSGECFYDEKRNLQCICDYCEY; UniProt P56552 1-54, looked up)”, the Sweetness/potency is on record as 2,000.
For the molecule Polypodoside A, the Sweetness/potency is 600.
In the case of Albiziasaponin B, the Sweetness/potency is given as 600.
On to `C/C(=C\CC/C(C)=C/CO[C@@H]1O[C@H](CO)[C@@H](O)[C@H](O[C@@H]2O[C@@H](C)[C@H](O)[C@@H](O)[C@H]2O)[C@H]1O[C@@H]1O[C@@H](C)[C@H](O)[C@@H](O)[C@H]1O)CC/C=C(\C)CO[C@@H]1O[C@H](CO)[C@@H](O)[C@H](O[C@@H]2O[C@@H](C)[C@H](O)[C@@H](O)[C@H]2O)[C@H]1O[C@@H]1O[C@@H](C)[C@H](O)[C@@H](O)[C@H]1O` [Mukurozioside IIb], for which the Sweetness/potency result is “ca. 1”.
`CC[C@@H](C)C(=O)O[C@@H](C)[C@]1(O)CC[C@]2(O)[C@@H]3CC[C@H]4C[C@@H](O[C@@H]5C[C@H](O)[C@H](O[C@H]6C[C@H](OC)[C@H](O[C@H]7C[C@@H](OC)[C@H](O[C@H]8C[C@@H](OC)[C@H](O[C@@H]9O[C@H](C)[C@@H](O[C@@H]%10O[C@H](CO)[C@@H](O)[C@H](O)[C@H]%10O)[C@H](OC)[C@H]9O)[C@@H](C)O8)[C@@H](C)O7)[C@@H](C)O6)[C@@H](C)O5)CC[C@]4(C)[C@H]3C[C@@H](OC(C)=O)[C@]12C` [Telosmoside A15]: the Sweetness/potency is 1000.
On to `COc1ccc(CCC(=O)c2c(O)cc(O[C@@H]3O[C@H](CO)[C@@H](O)[C@H](O)[C@H]3O[C@@H]3O[C@@H](C)[C@H](O)[C@@H](O)[C@H]3O)cc2O)cc1O` [Neohesperidin dihydrochalcone], for which the Sweetness/potency is given as 1,000.
As to Rebaudioside C, the Sweetness/potency is 30.
For the molecule `C=C(C)[C@@H]1CC=C(/C=N/O)CC1` [Perillartine], the Sweetness/potency is 370.
With `CC1=CC[C@@H]([C@@H](C)[C@H]2CC[C@@]3(C)[C@@H]4CC[C@H]5[C@](C)(C(=O)O)[C@@H](O[C@@H]6O[C@H](CO)[C@@H](O)[C@H](O)[C@H]6O[C@@H]6O[C@H](C(=O)O)[C@@H](O)[C@H](O)[C@H]6O)CC[C@@]56C[C@@]46CC[C@]23C)OC1=O` [Abrusoside D], the Sweetness/potency is on record as 75.
On to `C/C=C/c1ccc(OC)cc1` [trans-Anethole], for which the Sweetness/potency was 13.
Consider Baiyunoside, for which the Sweetness/potency is given as 500.
For Carnosifloside V, the Sweetness/potency was 51.
In the case of Periandrin II, the Sweetness/potency is listed as 95.
On to Scandenoside R6, for which the Sweetness/potency is recorded as 54.
Turning to `C[C@@H]1O[C@@H](O[C@H]2[C@H](Oc3cc(O)c(C(=O)CCc4ccc(O)cc4)c(O)c3)O[C@H](CO)[C@@H](O)[C@@H]2O)[C@H](O)[C@H](O)[C@H]1O` [Naringin dihydrochalcone], the Sweetness/potency is recorded as 300.
For `CC(C)=CCC[C@](C)(O)[C@@H]1CCC(C)=CC1=O` [(+)-Hernandulcin], the Sweetness/potency is 1,500.
For the molecule `CC1(C)C[C@H]2C3=CC[C@@H]4[C@@]5(C)CC[C@H](O[C@@H]6O[C@H](CO[C@@H]7OC[C@H](O)[C@H](O)[C@H]7O[C@@H]7OC[C@@H](O)[C@H](O)[C@H]7O)[C@@H](O)[C@H](O)[C@H]6O)C(C)(C)[C@@H]5CC[C@@]4(C)[C@]3(C)C[C@@H](O)[C@@]23C[C@@H]1OC3=O` [Albiziasaponin A], the Sweetness/potency is 5.
As to `CC1(C)[C@@H](O[C@@H]2O[C@H](C(=O)O)[C@@H](O)[C@H](O)[C@H]2O[C@@H]2O[C@H](C(=O)O)[C@@H](O)[C@H](O)[C@H]2O)CC[C@]2(C=O)[C@H]3CC[C@@H]4C5=C[C@@](C)(C(=O)O)CC[C@]5(C)CC[C@@]4(C)[C@]3(C)CC[C@@H]12` [Periandrin I], the Sweetness/potency is recorded as 90.
With Cyclocaryoside I, the Sweetness/potency is 250.
As to `C=C1C[C@@]23CC[C@H]4[C@@](C)(CCC[C@@]4(C)C(=O)O)[C@@H]2CC[C@]1(O[C@@H]1O[C@H](CO)[C@@H](O)[C@H](O)[C@H]1O[C@@H]1O[C@H](CO)[C@@H](O)[C@H](O)[C@H]1O)C3` [Steviolbioside], the Sweetness/potency is listed as 90.
In the case of `COc1ccc(C2Oc3cc(O)cc(O)c3C(=O)C2OC(C)=O)cc1O` (stereo not drawn) [Dihydroquercetin 3-O-acetate 4'-methyl ether], the Sweetness/potency was 400.
Regarding Cyclocarioside A, the Sweetness/potency is 200.
Regarding `O=C/C=C/c1ccccc1` [Trans-Cinnamaldehyde], the Sweetness/potency was 50.
Consider `COc1c(O)cc2c(c1O)C(=O)[C@H](OC(C)=O)[C@@H](c1ccc(O)c(O)c1)O2` [(2R,3R)-2,3-Dihydro-5,7,3',4'-tetrahydroxy-6-methoxy-3-O-acetylflavonol], for which the Sweetness/potency was 25.
`C[C@@H]1O[C@@H](O[C@H]2O[C@@H]([C@@H](C)C3CC[C@@H]4[C@H]5CC(=O)[C@@H]6C[C@H](O[C@@H]7O[C@H](CO)[C@@H](O)[C@H](O)[C@H]7O[C@@H]7O[C@@H](C)[C@H](O)[C@@H](O)[C@H]7O)CC[C@]6(C)[C@@H]5CC[C@]34C)CC[C@@H]2C)[C@H](O)[C@H](O)[C@H]1O` (stereo partly drawn) [Osladin]: the Sweetness/potency was 500.
In the case of `COc1c(O)cc2c(c1O)C(=O)[C@H](OC(C)=O)[C@@H](c1ccc(O)cc1)O2` [(2R,3R)-2,3-Dihydro-5,7,4'-trihydroxy-6-methoxy-3-O-acetylflavonol], the Sweetness/potency is on record as 20.
Take `CC1(C(=O)O)C=C2C3CCC4C5(CO)CCC(OC6OC(C(=O)O)C(O)C(O)C6OC6OC(C(=O)O)C(O)C(O)C6O)C(C)(C)C5CCC4(C)C3(C)CCC2(C)CC1` (stereo not drawn) [Periandrin III]: the Sweetness/potency is 92.
For the molecule Rebaudioside B, the Sweetness/potency is reported as 150.
Regarding `CC1=CC[C@@H]([C@@H](C)[C@H]2CC[C@@]3(C)[C@@H]4CC[C@H]5[C@](C)(C(=O)O)[C@@H](O[C@@H]6O[C@H](CO)[C@@H](O)[C@H](O)[C@H]6O)CC[C@@]56C[C@@]46CC[C@]23C)OC1=O` [Abrusoside A], the Sweetness/potency is on record as 30.
Consider `COC(=O)[C@H]1O[C@@H](O[C@H]2[C@H](O[C@H]3CC[C@]45C[C@]46CC[C@]4(C)[C@@H]([C@H](C)[C@@H]7CC=C(C)C(=O)O7)CC[C@@]4(C)[C@@H]6CC[C@H]5[C@]3(C)C(=O)O)O[C@H](CO)[C@@H](O)[C@@H]2O)[C@H](O)[C@@H](O)[C@@H]1O` [Abrusoside B], for which the Sweetness/potency is 100.
On to `CC1(C(=O)O)C=C2C3CCC4C5(C=O)CCC(OC6OC(C(=O)O)C(O)C(O)C6OC6OCC(O)C(O)C6O)C(C)(C)C5CCC4(C)C3(C)CCC2(C)CC1` (stereo not drawn) [Periandrin V], for which the Sweetness/potency is 220.
Turning to Pentadin, the Sweetness/potency is recorded as 500.
For Monellin, the Sweetness/potency is on record as 3,000.
In the case of `C/C(=C\CC[C@@H](C)[C@H]1CC[C@@]2(C)[C@@H]3CC=C4[C@@H](CC[C@H](O[C@@H]5O[C@H](CO)[C@@H](O)[C@H](O)[C@H]5O)C4(C)C)[C@]3(C)[C@H](O)C[C@]12C)CO[C@@H]1O[C@H](CO[C@@H]2O[C@H](CO)[C@@H](O)[C@H](O)[C@H]2O)[C@@H](O)[C@H](O)[C@H]1O` [Carnosifloside VI], the Sweetness/potency is 77.
Consider Periandrin IV, for which the Sweetness/potency is given as 85.
Turning to `COc1ccc([C@H]2Cc3cccc(O)c3C(=O)O2)cc1O` [Phyllodulcin], the Sweetness/potency is 400.
As to `CC1(C(=O)O)CCC2(C)CCC3(C)C(=CC(=O)C4C5(C)CCC(OC6OC(C(=O)O)C(O)C(O)C6OC6OCC(O)(CO)C6O)C(C)(C)C5CCC43C)C2C1` (stereo not drawn) [Apioglycyrrhizin], the Sweetness/potency was 300.
In the case of Curculin, the Sweetness/potency is 550.
